From US12577245B2, “Sulfonyl benzamide derivatives as Bcl-2 inhibitors” (ASCENTAGE PHARMA (SUZHOU) CO., LTD., priority 2021, dated 2026)

Each compound was assayed against Bcl-2 G101V (Homo sapiens, UniProt P10415, G101V) (assay: Bcl-2 G101V inhibition, fluorescence polarization (Flu-BIM tracer) binding assay). Conditions: not given.
Compound `CC1(C)CCC(CN2CCN(c3ccc(C(=O)NS(=O)(=O)c4ccc(NC[C@H]5COCCO5)c([N+](=O)[O-])c4)c(Oc4cnc5[nH]ccc5c4)c3)CC2)=C(c2cc(C(=O)Nc3ccccc3)cs2)C1` [Example 17, (S)-5-(2-((4-(4-(((4-(((1,4-dioxan-2-yl)methyl)amino)-3-nitrophenyl)sulfonyl)carbamoyl)-3-((1H-pyrrolo[2,3-b]pyridin-5-yl)oxy)phenyl)piperazin-1-yl)methyl)-5,5-dimethylcyclohex-1-en-1-yl)-N-phenylthiophene-3-carboxamide] has an IC50 of 49.5 nM.

Same assay, conditions: FP; 20 nM Bcl2, 5 nM Flu-BIM, 1 h incubation; read-out: Bcl-2 G101V (FP)
With `Cc1sc(C2=C(CN3CCN(c4ccc(C(=O)NS(=O)(=O)c5ccc(NC[C@H]6CC[C@](C)(O)CC6)c([N+](=O)[O-])c5)c(Oc5cnc6[nH]ccc6c5)c4)CC3)CCC(C)(C)C2)cc1-c1c(F)cc(C(C)(C)O)cc1F` [Example 81, 2-((1H-pyrrolo[2,3-b]pyridin-5-yl)oxy)-4-(4-((2-(4-(2,6-difluoro-4-(2-hydroxypropan-2-yl)phenyl)-5-methylthiophen-2-yl)-4,4-dimethylcyclohex-1-en-1-yl)methyl)piperazin-1-yl)-N-((4-((((1r,4r)-4-hydroxy-4-methylcyclohexyl)methyl)amino)-3-nitrophenyl)sulfonyl)benzamide] the IC50 was 103 nM. `CC1(C)CCC(CN2CCN(c3ccc(C(=O)NS(=O)(=O)c4ccc(NC[C@H]5COCCO5)c([N+](=O)[O-])c4)c(Oc4cnc5[nH]ccc5c4)c3)CC2)=C(c2cc(CN3CCN(C4COC4)CC3)cs2)C1` [Example 31, (S)—N-((4-(((1,4-dioxan-2-yl)methyl)amino)-3-nitrophenyl)sulfonyl)-2-((1H-pyrrolo[2,3-b]pyridin-5-yl)oxy)-4-(4-((4,4-dimethyl-2-(4-((4-(oxetan-3-yl)piperazin-1-yl)methyl)thiophen-2-yl)cyclohex-1-en-1-yl)methyl)piperazin-1-yl)benzamide] gave an IC50 of 59.2 nM. Compound `CC1(C)CCC(CN2CCN(c3ccc(C(=O)NS(=O)(=O)c4ccc(NC[C@H]5CC[C@](C)(O)CC5)c([N+](=O)[O-])c4)c(Oc4cnc5[nH]ccc5c4)c3)CC2)=C(c2cc(-c3ccc(C(C)(C)O)c(F)c3)cs2)C1` [Example 71, 2-((1H-pyrrolo[2,3-b]pyridin-5-yl)oxy)-4-(4-((2-(4-(3-fluoro-4-(2-hydroxypropan-2-yl)phenyl)thiophen-2-yl)-4,4-dimethylcyclohex-1-en-1-yl)methyl)piperazin-1-yl)-N-((4-((((1r,4r)-4-hydroxy-4-methylcyclohexyl)methyl)amino)-3-nitrophenyl)sulfonyl)benzamide] has an IC50 of 20.3 nM. For `CC1(C)CCC(CN2CCN(c3ccc(C(=O)NS(=O)(=O)c4ccc(NCC5CCOCC5)c([N+](=O)[O-])c4)c(Oc4cnc5[nH]ccc5c4)c3)CC2)=C(c2ccsc2CN2CCOCC2)C1` [Example 25, 2-((1H-pyrrolo[2,3-b]pyridin-5-yl)oxy)-4-(4-((4,4-dimethyl-2-(2-(morpholinomethyl)thiophen-3-yl)cyclohex-1-en-1-yl)methyl)piperazin-1-yl)-N-((3-nitro-4-(((tetrahydro-2H-pyran-4-yl)methyl)amino)phenyl)sulfonyl)benzamide], the IC50 was 39.1 nM. With `CC1(C)CCC(CN2CCN(c3ccc(C(=O)NS(=O)(=O)c4ccc(NC[C@H]5CC[C@](C)(O)CC5)c([N+](=O)[O-])c4)c(Oc4cnc5[nH]ccc5c4)c3)CC2)=C(c2cc(-c3c(F)cc(C(C)(C)CO)cc3F)cs2)C1` [Example 74, 2-((1H-pyrrolo[2,3-b]pyridin-5-yl)oxy)-4-(4-((2-(4-(2,6-difluoro-4-(1-hydroxy-2-methylpropan-2-yl)phenyl)thiophen-2-yl)-4,4-dimethylcyclohex-1-en-1-yl)methyl)piperazin-1-yl)-N-((4-((((1r,4r)-4-hydroxy-4-methylcyclohexyl)methyl)amino)-3-nitrophenyl)sulfonyl)benzamide] the IC50 was 30.2 nM. For `CC1(C)CCC(CN2CCN(c3ccc(C(=O)NS(=O)(=O)c4ccc(NC[C@H]5CC[C@](C)(O)CC5)c([N+](=O)[O-])c4)c(Oc4cnc5[nH]ccc5c4)c3)CC2)=C(c2cc(-c3ccc(F)c(F)c3)cs2)C1` [Example 51, 2-((1H-pyrrolo[2,3-b]pyridin-5-yl)oxy)-4-(4-((2-(4-(3,4-difluorophenyl)thiophen-2-yl)-4,4-dimethylcyclohex-1-en-1-yl)methyl)piperazin-1-yl)-N-((4-((((1r,4r)-4-hydroxy-4-methylcyclohexyl)methyl)amino)-3-nitrophenyl)sulfonyl)benzamide], the IC50 was 45.5 nM. Compound `CC1(C)CCC(CN2CCN(c3ccc(C(=O)NS(=O)(=O)c4ccc(NCC5CCOCC5)c([N+](=O)[O-])c4)c(Oc4cnc5[nH]ccc5c4)c3)CC2)=C(c2csc(C(F)(F)F)c2)C1` [Example 3, 2-((1H-pyrrolo[2,3-b]pyridin-5-yl)oxy)-4-(4-((4,4-dimethyl-2-(5-(trifluoromethyl)thiophen-3-yl)cyclohex-1-en-1-yl)methyl)piperazin-1-yl)-N-((3-nitro-4-(((tetrahydro-2H-pyran-4-yl)methyl)amino)phenyl)sulfonyl)benzamide] has an IC50 of 45.6 nM. `CC1(C)CCC(CN2CCN(c3ccc(C(=O)NS(=O)(=O)c4ccc(NC[C@H]5COCCO5)c([N+](=O)[O-])c4)c(Oc4cnc5[nH]ccc5c4)c3)CC2)=C(c2cc(-c3ccc(F)cc3)cs2)C1` [Example 33, (S)—N-((4-(((1,4-dioxan-2-yl)methyl)amino)-3-nitrophenyl)sulfonyl)-2-((1H-pyrrolo[2,3-b]pyridin-5-yl)oxy)-4-(4-((2-(4-(4-fluorophenyl)thiophen-2-yl)-4,4-dimethylcyclohex-1-en-1-yl)methyl)piperazin-1-yl)benzamide] gave an IC50 of 33.1 nM. Compound `CC1(C)CCC(CN2CCN(c3ccc(C(=O)NS(=O)(=O)c4ccc(NC[C@H]5CC[C@](C)(O)CC5)c([N+](=O)[O-])c4)c(Oc4cnc5[nH]ccc5c4)c3)CC2)=C(c2cc(-c3ccc(F)c(F)c3F)cs2)C1` [Example 46, 2-((1H-pyrrolo[2,3-b]pyridin-5-yl)oxy)-4-(4-((4,4-dimethyl-2-(4-(2,3,4-trifluorophenyl)thiophen-2-yl)cyclohex-1-en-1-yl)methyl)piperazin-1-yl)-N-((4-((((1r,4r)-4-hydroxy-4-methylcyclohexyl)methyl)amino)-3-nitrophenyl)sulfonyl)benzamide] has an IC50 of 43.5 nM. For `CC1(C)CCC(CN2CCN(c3ccc(C(=O)NS(=O)(=O)c4ccc(NC[C@H]5COCCO5)c([N+](=O)[O-])c4)c(Oc4cnc5[nH]ccc5c4)c3)CC2)=C(c2cc(-c3ccc(F)c(F)c3)cs2)C1` [Example 50, (S)—N-((4-(((1,4-dioxan-2-yl)methyl)amino)-3-nitrophenyl)sulfonyl)-2-((1H-pyrrolo[2,3-b]pyridin-5-yl)oxy)-4-(4-((2-(4-(3,4-difluorophenyl)thiophen-2-yl)-4,4-dimethylcyclohex-1-en-1-yl)methyl)piperazin-1-yl)benzamide], the IC50 was 42.7 nM. `CC1(C)CCC(CN2CCN(c3ccc(C(=O)NS(=O)(=O)c4ccc(NC[C@H]5CC[C@](C)(O)CC5)c([N+](=O)[O-])c4)c(Oc4cnc5[nH]ccc5c4)c3)CC2)=C(c2cc(-c3ccc(C(C)(C)C#N)cc3)cs2)C1` [Example 56, 2-((1H-pyrrolo[2,3-b]pyridin-5-yl)oxy)-4-(4-((2-(4-(4-(2-cyanopropan-2-yl)phenyl)thiophen-2-yl)-4,4-dimethylcyclohex-1-en-1-yl)methyl)piperazin-1-yl)-N-((4-((((1r,4r)-4-hydroxy-4-methylcyclohexyl)methyl)amino)-3-nitrophenyl)sulfonyl)benzamide] gave an IC50 of 27.6 nM. With `CC1(C)CCC(CN2CCN(c3ccc(C(=O)NS(=O)(=O)c4ccc(NC[C@H]5COCCO5)c([N+](=O)[O-])c4)c(Oc4cnc5[nH]ccc5c4)c3)CC2)=C(c2cc(-c3ccc(C(F)(F)F)cc3)cs2)C1` [Example 40, (S)—N-((4-(((1,4-dioxan-2-yl)methyl)amino)-3-nitrophenyl)sulfonyl)-2-((1H-pyrrolo[2,3-b]pyridin-5-yl)oxy)-4-(4-((4,4-dimethyl-2-(4-(4-(trifluoromethyl)phenyl)thiophen-2-yl)cyclohex-1-en-1-yl)methyl)piperazin-1-yl)benzamide] the IC50 was 43.4 nM. For `CC1(C)CCC(CN2CCN(c3ccc(C(=O)NS(=O)(=O)c4ccc(NC[C@H]5CC[C@](C)(O)CC5)c([N+](=O)[O-])c4)c(Oc4cnc5[nH]ccc5c4)c3)CC2)=C(c2cc(-c3cc(C(C)(C)O)ccc3F)cs2)C1` [Example 75, 2-((1H-pyrrolo[2,3-b]pyridin-5-yl)oxy)-4-(4-((2-(4-(2-fluoro-5-(2-hydroxypropan-2-yl)phenyl)thiophen-2-yl)-4,4-dimethylcyclohex-1-en-1-yl)methyl)piperazin-1-yl)-N-((4-((((1r,4r)-4-hydroxy-4-methylcyclohexyl)methyl)amino)-3-nitrophenyl)sulfonyl)benzamide], the IC50 was 34.3 nM. Compound `CC1(C)CCC(CN2CCN(c3ccc(C(=O)NS(=O)(=O)c4ccc(NC[C@H]5CC[C@](C)(O)CC5)c([N+](=O)[O-])c4)c(Oc4cnc5[nH]ccc5c4)c3)CC2)=C(c2cc(-c3ccc(C(C)(O)C(F)(F)F)cc3F)cs2)C1` (stereo partly shown) [Example 78, 2-((1H-pyrrolo[2,3-b]pyridin-5-yl)oxy)-4-(4-((2-(4-(2-fluoro-4-(1,1,1-trifluoro-2-hydroxypropan-2-yl)phenyl)thiophen-2-yl)-4,4-dimethylcyclohex-1-en-1-yl)methyl)piperazin-1-yl)-N-((4-((((1r,4r)-4-hydroxy-4-methylcyclohexyl)methyl)amino)-3-nitrophenyl)sulfonyl)benzamide] has an IC50 of 33.2 nM. `CC1(C)CCC(CN2CCN(c3ccc(C(=O)NS(=O)(=O)c4ccc(NC[C@H]5COCCO5)c([N+](=O)[O-])c4)c(Oc4cnc5[nH]ccc5c4)c3)CC2)=C(c2cc(-c3c(F)cc(C(C)(C)O)cc3F)cs2)C1` [Example 64, (S)—N-((4-(((1,4-dioxan-2-yl)methyl)amino)-3-nitrophenyl)sulfonyl)-2-((1H-pyrrolo[2,3-b]pyridin-5-yl)oxy)-4-(4-((2-(4-(2,6-difluoro-4-(2-hydroxypropan-2-yl)phenyl)thiophen-2-yl)-4,4-dimethylcyclohex-1-en-1-yl)methyl)piperazin-1-yl)benzamide] was tested, and the IC50 was 37 nM.
